Experimental data: US20250026743A1, “HETEROARYL-LINKED ANALOGS AS MGLU5 NEGATIVE ALLOSTERIC MODULATORS AND METHODS OF MAKING AND USING THE SAME” (Vanderbilt University, priority 2021, published 2025)
pIC50: −log10 of the molar value. Read-outs that look alike come from different tables or passages of the source.

Target: T1, hmGlu5 (Homo sapiens, UniProt P41594)
T1 construct: expressed in transfected cells; host or cells: HEK 293A
Assay: mGlu5 Ca2+ flux assay in HEK 293A cells (negative allosteric modulation of glutamate EC80 response)
Assay type: cell-based
Conditions: for remaining activity at 30 µM: HEK293-A, read-out: hmGlu5 NAM Emin (%); for pIC50: HEK 293A cells, Ca2+ flux, glutamate EC80, >10,000 = decrease without plateau, read-out: hmGlu5 NAM IC50
Protocol: HEK 293A cells stably expressing either rat or human mGlu5 were plated in black-walled, clear-bottomed, poly-D-lysine coated 384-well plates in 20 μL of assay medium (DMEM containing 10% dialyzed FBS, 20 mM HEPES, 100 units/mL penicillin/streptomycin plus 250 ng/mL Fungizone, and 1 mM sodium pyruvate) at a density of 20K cells/well. The cells were grown overnight at 37° C. in the presence of 5% CO2. The next day, medium was removed and the cells incubated with 20 μL of 2.3 μM Fluo-4, AM prepared as a 2.3 mM stock in DMSO and mixed in a 1:1 ratio with 10% (w/v) pluronic acid F-127 and diluted in assay buffer (Hank's balanced salt solution, 20 mM HEPES, and 2.5 mM probenecid) for 45 minutes at 37° C. Dye was removed, 20 μL of assay buffer was added, and the plate was incubated for 5 minutes at room temperature.
Ca^2+ flux was measured using the Functional Drug Screening System (FDSS7000, Hamamatsu, Japan). After establishment of a fluorescence baseline for about 3 seconds, the compounds of the present invention were added to the cells, and the response in cells was measured. 2.3 minutes later an EC20 concentration of the mGlu5 receptor agonist glutamate was added to the cells, and the response of the cells was measured for 1.9 minutes; an EC80 concentration of agonist was added and readings taken for an additional 1.7 minutes. All test compounds were dissolved and diluted to a concentration of 10 mM in 100% DMSO. Compounds were then serially diluted 1:3 in DMSO into 10 point concentration response curves, transferred to daughter plates, and further diluted into assay buffer to a 2× stock. Calcium fluorescence measures were recorded as fold over basal fluorescence; raw data was then normalized to the maximal response to glutamate. Antagonism of the agonist response of the mGlu5 receptor in the present invention was observed as a decrease in response to nearly maximal concentrations of glutamate in the presence of compound compared to the response to glutamate in the absence of compound.
The raw data file containing all time points was used as the data source in the analysis template. This was saved by the FDSS as a tab-delimited text file. Data were normalized using a static ratio function (F/F0) for each measurement of the total 360 values per well divided by each well's initial value. Data were then reduced to peak amplitudes (Max−Initial Min) using a time range that starts approximately 3 seconds prior to the glutamate EC20/EC80 addition and continues for approximately 90-120 seconds. This is sufficient time to capture the peak amplitude of the cellular calcium response. Individual amplitudes were expressed as % EMax by multiplying each amplitude by 100 and then dividing the product by the mean of the amplitudes derived from the glutamate ECMax-treated wells. IC50 values for test compounds were generated by fitting the normalized values versus the log of the test compound concentration (in mol/L) using a 4 parameter logistic equation where none of the parameters were fixed. Each of the three values collected at each concentration of test compound were weighted evenly.
For NAMs with a CRC that plateaus above 10% Glu Max, the IC50 values are reported, the compound is designated a “partial NAM” and the % Glu Max is reported. […] Compounds without measurable activity are designated as “>30,000 nM” since the top concentration of compound tested in the assay is 30 μM. […]

T1 sequence (P41594 21-1212): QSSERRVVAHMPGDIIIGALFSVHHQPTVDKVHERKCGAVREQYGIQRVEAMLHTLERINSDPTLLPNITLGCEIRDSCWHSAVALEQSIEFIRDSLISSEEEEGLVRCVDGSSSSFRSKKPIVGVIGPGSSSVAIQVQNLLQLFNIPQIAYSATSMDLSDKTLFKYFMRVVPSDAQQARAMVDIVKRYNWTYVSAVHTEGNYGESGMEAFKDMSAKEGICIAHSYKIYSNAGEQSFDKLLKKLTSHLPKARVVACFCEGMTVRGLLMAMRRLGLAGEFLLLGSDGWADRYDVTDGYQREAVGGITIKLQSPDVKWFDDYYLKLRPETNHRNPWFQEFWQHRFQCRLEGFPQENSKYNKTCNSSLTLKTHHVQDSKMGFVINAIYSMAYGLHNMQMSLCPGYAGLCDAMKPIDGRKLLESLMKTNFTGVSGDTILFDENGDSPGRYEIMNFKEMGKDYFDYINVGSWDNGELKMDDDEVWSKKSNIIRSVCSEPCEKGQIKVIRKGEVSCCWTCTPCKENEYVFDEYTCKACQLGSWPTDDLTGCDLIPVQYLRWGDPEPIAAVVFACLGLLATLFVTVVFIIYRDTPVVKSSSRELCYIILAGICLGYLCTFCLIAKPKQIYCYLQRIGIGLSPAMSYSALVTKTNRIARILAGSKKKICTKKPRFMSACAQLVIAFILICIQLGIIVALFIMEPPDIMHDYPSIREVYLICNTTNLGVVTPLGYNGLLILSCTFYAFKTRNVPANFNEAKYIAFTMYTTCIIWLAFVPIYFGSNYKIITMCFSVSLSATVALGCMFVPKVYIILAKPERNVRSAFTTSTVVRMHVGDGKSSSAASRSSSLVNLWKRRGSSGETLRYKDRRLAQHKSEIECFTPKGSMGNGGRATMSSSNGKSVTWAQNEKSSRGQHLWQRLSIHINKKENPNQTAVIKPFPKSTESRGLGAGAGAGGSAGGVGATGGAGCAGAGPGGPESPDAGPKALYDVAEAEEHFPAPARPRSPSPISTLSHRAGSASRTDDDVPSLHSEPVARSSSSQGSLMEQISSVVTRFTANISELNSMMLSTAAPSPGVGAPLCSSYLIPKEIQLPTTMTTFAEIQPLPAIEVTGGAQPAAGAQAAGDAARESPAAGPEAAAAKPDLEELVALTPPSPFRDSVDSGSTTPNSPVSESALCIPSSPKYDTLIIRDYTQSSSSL

SMILES | remaining activity at 30 µM (% Glu max at 30 μM) [%] | pIC50 | remaining activity at 30 µM [%]
Cc1nc(-c2noc(C3CCOCC3)n2)cc(-c2cncc(F)c2)c1F [Compound 37, 3-(5,5′-difluoro-6′-methyl-[3,4′-bipyridin]-2′-yl)-5-(tetrahydro-2H-pyran-4-yl)-1,2,4-oxadiazole] | 54 | < 5.00 | –
Fc1ccc(-c2noc(-c3cc(-c4cncc(F)c4)cc(C(F)F)n3)n2)nc1 [Compound 78, 5-(6′-(difluoromethyl)-5-fluoro-[3,4′-bipyridin]-2′-yl)-3-(5-fluoropyridin-2-yl)-1,2,4-oxadiazole] | 2 | 6.83 | –
Cc1nc(-c2noc(-c3ccc(F)cn3)n2)cc(-c2cc(Cl)cc(C#N)c2)c1F [Compound 70, 3-chloro-5-(3-fluoro-6-(5-(5-fluoropyridin-2-yl)-1,2,4-oxadiazol-3-yl)-2-methylpyridin-4-yl)benzonitrile] | 3 | 6.69 | –
Cc1csc(-c2nc(-c3cc(-c4cnc(C)s4)c(F)c(C)n3)no2)n1 [Compound 18, 3-(5-fluoro-6-methyl-4-(2-methylthiazol-5-yl)pyridin-2-yl)-5-(4-methylthiazol-2-yl)-1,2,4-oxadiazole] | 13 | 5.95 | –
COCCOc1c(-c2cncc(F)c2)cc(-c2noc(-c3ccc(F)cn3)n2)nc1C [Compound 54, 3-(5-fluoro-5′-(2-methoxyethoxy)-6′-methyl-[3,4′-bipyridin]-2′-yl)-5-(5-fluoropyridin-2-yl)-1,2,4-oxadiazole] | 3 | 6.25 | –
COc1cncc(-c2cc(-c3nnc(-c4ccc(F)cn4)o3)nc(C)c2F)c1 [Compound 107, 2-(5′-fluoro-5-methoxy-6′-methyl-[3,4′-bipyridin]-2′-yl)-5-(5-fluoropyridin-2-yl)-1,3,4-oxadiazole] | 2 | 6.47 | –
Cc1ccncc1-c1cc(-c2noc(C(C)c3ccccc3)n2)nc(C)c1F (stereo not shown) [Compound 95, 3-(5′-fluoro-4,6′-dimethyl-[3,4′-bipyridin]-2′-yl)-5-(1-phenylethyl)-1,2,4-oxadiazole] | 27 | < 5.00 | –
Cc1nc(-c2noc(-c3cscn3)n2)cc(-c2cncc(F)c2)c1F [Compound 52, 3-(5,5′-difluoro-6′-methyl-[3,4′-bipyridin]-2′-yl)-5-(thiazol-4-yl)-1,2,4-oxadiazole] | 18 | < 5.00 | –
Cc1ccc(-c2cc(-c3nnc(-c4ccc(F)cn4)o3)nc(C)c2F)c(C)n1 [Compound 111, 2-(5′-fluoro-2,6,6′-trimethyl-[3,4′-bipyridin]-2′-yl)-5-(5-fluoropyridin-2-yl)-1,3,4-oxadiazole] | 2 | 5.82 | –
Cc1csc(-c2nc(-c3cc(-c4cnccc4C)c(F)c(C)n3)no2)n1 [Compound 15, 3-(5′-fluoro-4,6′-dimethyl-[3,4′-bipyridin]-2′-yl)-5-(4-methylthiazol-2-yl)-1,2,4-oxadiazole] | 2 | 7.01 | –
Cc1nc(-c2noc(-c3cccc(Cl)c3)n2)cc(-c2cncc(F)c2)c1F [Compound 44, 5-(3-chlorophenyl)-3-(5,5′-difluoro-6′-methyl-[3,4′-bipyridin]-2′-yl)-1,2,4-oxadiazole] | – | 5.24 | 34
Cc1csc(-c2noc(-c3cc(-c4cnccc4C)c(F)c(C)n3)n2)n1 [Compound 105, 5-(5′-fluoro-4,6′-dimethyl-[3,4′-bipyridin]-2′-yl)-3-(4-methylthiazol-2-yl)-1,2,4-oxadiazole] | 13 | < 5.00 | –
Cc1csc(-c2nnc(-c3cc(-c4cncc(F)c4)c(F)c(C)n3)o2)n1 [Compound 83, 2-(5,5′-difluoro-6′-methyl-[3,4′-bipyridin]-2′-yl)-5-(4-methylthiazol-2-yl)-1,3,4-oxadiazole] | – | 6.22 | 2
Cc1ccnc(-c2nc(-c3cc(-c4cnccc4C)c(F)c(C)n3)no2)c1 [Compound 88, 3-(5′-fluoro-4,6′-dimethyl-[3,4′-bipyridin]-2′-yl)-5-(4-methylpyridin-2-yl)-1,2,4-oxadiazole] | 3 | 6.61 | –
Cc1ccncc1-c1cc(-c2nnc(-c3cccc(F)c3)o2)nc(C)c1F [Compound 40, 2-(5′-fluoro-4,6′-dimethyl-[3,4′-bipyridin]-2′-yl)-5-(3-fluorophenyl)-1,3,4-oxadiazole] | 2 | 6.15 | –
CCn1cc(-c2cc(-c3nnc(-c4ccc(F)cn4)o3)nc(C)c2F)cn1 [Compound 75, 2-(4-(1-ethyl-1H-pyrazol-4-yl)-5-fluoro-6-methylpyridin-2-yl)-5-(5-fluoropyridin-2-yl)-1,3,4-oxadiazole] | 2 | 6.23 | –
Cc1ccncc1-c1cc(-c2noc(-c3ccc(F)cn3)n2)ncc1F [Compound 1, 3-(5′-fluoro-4-methyl-[3,4′-bipyridin]-2′-yl)-5-(5-fluoropyridin-2-yl)-1,2,4-oxadiazole] | 3 | 6.72 | –
Cc1nc(-c2noc(-c3ccc(F)cn3)n2)cc(-c2cncc(C#N)c2)c1F [Compound 68, 3′-fluoro-6′-(5-(5-fluoropyridin-2-yl)-1,2,4-oxadiazol-3-yl)-2′-methyl-[3,4′-bipyridine]-5-carbonitrile] | 3 | 6.12 | –
Cc1nc(-c2noc(-c3cccnc3)n2)cc(-c2cncc(F)c2)c1F [Compound 50, 3-(5,5′-difluoro-6′-methyl-[3,4′-bipyridin]-2′-yl)-5-(pyridin-3-yl)-1,2,4-oxadiazole] | 34 | 5.81 | –
Cc1nc(-c2nnc(-c3ccc(F)cn3)o2)cc(-c2cncc(F)c2)c1OC(C)C [Compound 45, 2-(5-fluoro-5′-isopropoxy-6′-methyl-[3,4′-bipyridin]-2′-yl)-5-(5-fluoropyridin-2-yl)-1,3,4-oxadiazole] | 2 | 6.02 | –
COc1cc(-c2cc(-c3nnc(-c4ccc(F)cn4)o3)nc(C)c2F)ccn1 [Compound 108, 2-(5-fluoro-2′-methoxy-6-methyl-[4,4′-bipyridin]-2-yl)-5-(5-fluoropyridin-2-yl)-1,3,4-oxadiazole] | 1 | 7.03 | –
COc1ccncc1-c1cc(-c2nnc(-c3ccc(F)cn3)o2)nc(C)c1F [Compound 73, 2-(5′-fluoro-4-methoxy-6′-methyl-[3,4′-bipyridin]-2′-yl)-5-(5-fluoropyridin-2-yl)-1,3,4-oxadiazole] | 2 | 6.53 | –
Cc1ccncc1-c1cc(-c2noc(-c3cccnn3)n2)nc(C)c1F [Compound 92, 3-(5′-fluoro-4,6′-dimethyl-[3,4′-bipyridin]-2′-yl)-5-(pyridazin-3-yl)-1,2,4-oxadiazole] | 74 | < 5.00 | –
Cc1ccc(-c2nnc(-c3cc(-c4cncc(F)c4)c(F)c(C)n3)o2)nc1 [Compound 57, 2-(5,5′-difluoro-6′-methyl-[3,4′-bipyridin]-2′-yl)-5-(5-methylpyridin-2-yl)-1,3,4-oxadiazole] | – | 5.97 | 4
CCn1cc(-c2cc(-c3noc(-c4nc(C)cs4)n3)nc(C)c2F)cn1 [Compound 17, 3-(4-(1-ethyl-1H-pyrazol-4-yl)-5-fluoro-6-methylpyridin-2-yl)-5-(4-methylthiazol-2-yl)-1,2,4-oxadiazole] | 25 | < 5.00 | –
Fc1ccc(-c2nc(-c3cc(-c4cncc(F)c4)cc(C4CCC4)n3)no2)nc1 [Compound 39, 3-(6′-cyclobutyl-5-fluoro-[3,4′-bipyridin]-2′-yl)-5-(5-fluoropyridin-2-yl)-1,2,4-oxadiazole] | 58 | 5.72 | –
